In series [1] the test system is Aβtotal. Description: In vivo efficacy B-1a/B-2a: brain soluble Aβtotal in non-transgenic rodents, ELISA. Also on record: species or system mouse. As to conditions: dose 30 mg/kg oral dosing, brain soluble fraction, untreated animals (Ctrl) set at 100; for response vs control in vivo at 30 mg/kg: Mus musculus, po, 4 h, read-out: Aβtotal (% vs Ctrl)_Mean. An excerpt: (§1) To determine whether acute administration of an Aβ42 lowering agent would reduce Aβ42 levels in vivo, non-transgenic rodents, e.g. mice or rats were used. Animals treated with the Aβ42 lowering agent were examined and compared to those untreated or treated with vehicle and brain levels of soluble Aβ42 and total Aβ were quantitated by standard techniques, for example, using ELISA. Treatment periods varied from hours (h) to days and were adjusted based on the results of the Aβ42 lowering once a time course of onset of effect could be established.
(§2) A typical protocol for measuring Aβ42 lowering in vivo is shown but it is only one of many variations that could be used to optimize the levels of detectable Aβ. For example, Aβ42 lowering compounds were formulated in 20% of Captisol® (a sulfobutyl ether of β-cyclodextrin) in water or 20% hydroxypropyl β cyclodextrin. The Aβ42 lowering agents were administered as a single oral dose or by any acceptable route of administration to overnight fasted animals. After 4 h, the animals were sacrificed and Aβ42 levels were analysed.
(§3) Blood was collected by decapitation and exsanguinations in EDTA-treated collection tubes. Blood was centrifuged at 1900 g for 10 minutes (min) at 4° C. and the plasma recovered and flash frozen for later analysis. The brain was removed from the cranium and hindbrain. The cerebellum was removed and the left and right hemisphere were separated. The left hemisphere was stored at −18° C. for quantitative analysis of test compound levels. The right hemisphere was rinsed with phosphate-buffered saline (PBS) buffer and immediately frozen on dry ice and stored at −80° C. until homogenization for biochemical assays.
(§4) Mouse brains from non-transgenic animals were resuspended in 8 volumes of 0.4% DEA (diethylamine)/50 mM NaCl containing protease inhibitors (Roche-11873580001 or 04693159001) per gram of tissue, e.g. for 0.158 g brain, add 1.264 mL of 0.4% DEA. All samples were homogenized in the FastPrep-24 system (MP Biomedicals) using lysing matrix D (MPBio #6913-100) at 6 m/s for 20 seconds. Homogenates were centrifuged at 20800×g for 5 min and supernatants collected. Supernatants were centrifuged at 221.300×g for 50 min. The resulting high speed supernatants were then transferred to fresh eppendorf tubes. Nine parts of supernatant were neutralized with 1 part 0.5 M Tris-HCl pH 6.8 and used to quantify Aβtotal and Aβ42.
(§5) To quantify the amount of Aβtotal and Aβ42 in the soluble fraction of the brain homogenates, Enzyme-Linked-Immunosorbent-Assays were used. Briefly, the standards (a dilution of synthetic Aβ1-40 and Aβ1-42, Bachem) were prepared in 1.5 mL Eppendorf tube in Ultraculture, with final concentrations ranging from 10000 to 0.3 pg/mL. The samples and standards were co-incubated with HRPO-labelled N-terminal antibody JRF/rAμ/2 for Aβ42 detection and with the biotinylated mid-domain antibody 4G8 for Aβtotal detection. 50 μl of conjugate/sample or conjugate/standards mixtures were then added to the antibody-coated plate (the capture antibodies selectively recognize the C-terminal end of Aβ42, antibody JRF/cAβ42/26, for Aβ42 detection and the N-terminus of AB, antibody JRF/rAβ/2, for Aβtotal detection). The plate was allowed to incubate overnight at 4° C. in order to allow formation of the antibody-amyloid complex. Following this incubation and subsequent wash steps the ELISA for Aβ42 quantification was finished by addition of Quanta Blu fluorogenic peroxidase substrate according to the manufacturer's instructions (Pierce Corp., Rockford, Ill.). A reading was performed after 10 to 15 min (excitation 320 nm/emission 420 nm).
For Aβtotal detection, a Streptavidine-Peroxidase-Conjugate was added, followed 60 min later by an additional wash step and addition of Quanta Blu fluorogenic peroxidase substrate according to the manufacturer's instructions (Pierce Corp., Rockford, Ill.). A reading was performed after 10 to 15 min (excitation 320 nm/emission 420 nm). […]

The subject of another series is Aβ42. Description: In vivo efficacy B-1a: brain soluble Aβ42 in non-transgenic rodents, ELISA. Also on record: species or system mouse. As to conditions: dose 30 mg/kg oral dosing, brain soluble fraction, untreated animals (Ctrl) set at 100; for response vs control in vivo at 30 mg/kg: Mus musculus, po, read-out: Aβ42 (% vs Ctrl)_Mean.
Text: as §1, §2, §3, §4, §5
In this model a Aβ42 lowering compared to untreated animals would be advantageous, in particular a Aβ42 lowering with at least 10%, more in particular a Aβ42 lowering with at least 20%.
The results are shown in Table 4 (dose 30 mg/kg oral dosing) (value for untreated animals as control (Ctrl) was set at 100): […]
(An ELISA detects its analyte on a solid surface through an enzyme-linked reagent.)

Series [2] has as its system Aβtotal. Put plainly: Screening for γ-secretase-modulating activity: Aβtotal in supernatant of SKNBE2 cells carrying hAPP 695 wild type (Alphalisa). The series is classed as cell-based, human. To be noted: overnight incubation, Alphalisa on supernatant. In short, it runs like this:
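SKNBE2 human neuroblastoma cells expressing wild-type hAPP 695 (10^4/well) were incubated overnight at 37 °C, 5% CO2 with compound at several concentrations. Supernatant Aβ42 and Aβtotal measured by AlphaLISA sandwich immunoassays; IC50 from 4-parameter fit of percent of untreated control versus log concentration.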

Setting [3] is: Homo sapiens, SKNBE2, SKNBE2 human neuroblastoma cells carrying hAPP 695 wild type.
Where [4] appears, read: SKNBE2 human neuroblastoma cells carrying hAPP 695 wild type.

Some results are limits rather than exact numbers.

One may read the IC50 as the midpoint of a concentration-inhibition curve. With `Cc1cn(-c2ccc3[nH]c(-c4nc5n(n4)CCCC5c4ccc(F)cc4C)cc3c2)cn1` (stereo not drawn) [Compound 73, 8-(4-fluoro-2-methylphenyl)-5,6,7,8-tetrahydro-2-[5-(4-methyl-1H-imidazol-1-yl)-1H-indol-2-yl]-[1,2,4]triazolo[1,5-a]pyridine], the response vs control in vivo at 30 mg/kg turned out to be 80% in the series with Aβtotal [1] and 43% with Aβ42. The compound further showed an IC50 in the series with Aβtotal [2] (setting [3]) above 10 µM.

On to `Cc1cc(F)ccc1C1CCCn2cc(-c3cc4cc(C#N)ccc4[nH]3)nc21` (stereo not drawn) [Compound 4, 2-[8-(4-fluoro-2-methylphenyl)-5,6,7,8-tetrahydroimidazo[1,2-a]pyridin-2-yl]-1H-indole-5-carbonitrile], for which the “Aβtotal (% vs Ctrl)_Mean” value with Aβtotal [1] (30 mg/kg) is 82 % vs Ctrl. For the same compound, the “Aβ42 (% vs Ctrl)_Mean” value in the series on Aβ42 (30 mg/kg) stood at 63 % vs Ctrl. Moreover, the half-inhibitory concentration (IC50) in the series with Aβtotal [2] (setting [3]) was above 10 µM.

With `Cc1cn(-c2cc3cc(-c4nc5n(n4)CCCC5c4ccccc4C)[nH]c3cn2)cn1` (stereo not drawn) [Compound 30, 5,6,7,8-tetrahydro-2-[5-(4-methyl-1H-imidazol-1-yl)-1H-pyrrolo[2,3-c]pyridin-2-yl]-8-(2-methylphenyl)-[1,2,4]triazolo[1,5-a]pyridine], the response vs control in vivo at 30 mg/kg with Aβtotal [1] was 97%; in the series on Aβ42, 91%. In the series on Aβtotal [2] (setting [3]), this compound gave a half-inhibitory concentration (IC50) above 10 µM.

As for `COc1c(C#N)ccc2[nH]c(-c3nc4n(n3)CCCC4c3ccccc3C(F)(F)F)cc12` (stereo not drawn) [Compound 7, 4-methoxy-2-[5,6,7,8-tetrahydro-8-[2-(trifluoromethyl)phenyl][1,2,4]triazolo[1,5-a]pyridin-2-yl]-1H-indole-5-carbonitrile], the response vs control in vivo at 30 mg/kg stood at 96% with Aβtotal [1] and 82% in the series with Aβ42. In the series with Aβtotal [2] (setting [3]), this compound had an IC50 above 10 µM.

Turning to `Cc1cn(-c2ccc3[nH]c(-c4nc5n(n4)CCOC5c4ccc(F)cc4C)cc3c2)cn1` (stereo not drawn) [Compound 39, 8-(4-fluoro-2-methylphenyl)-5,6-dihydro-2-[5-(4-methyl-1H-imidazol-1-yl)-1H-indo-2-yl]-8H-[1,2,4]triazolo[5,1-c][1,4]oxazine], the “Aβtotal (% vs Ctrl)_Mean” value in the series on Aβtotal [1] is on record as 99 % vs Ctrl. Besides, the “Aβ42 (% vs Ctrl)_Mean” value in the series with Aβ42 was 74 % vs Ctrl. This compound also displayed an IC50 with Aβtotal [2] (setting [4]) of 0.214 µM.

For the compound `Cc1cn(-c2ccc3[nH]c(-c4nc5n(n4)CCCC5c4ccccc4C(F)(F)F)cc3c2)cn1` (stereo not drawn) [Compound 8, 5,6,7,8-tetrahydro-2-[5-(4-methyl-1H-imidazol-1-yl)-1H-indol-2-yl]-8-[2-(trifluoromethyl)phenyl]-[1,2,4]triazolo[1,5-a]pyridine], the results for the response vs control in vivo at 30 mg/kg with Aβtotal [1] and in the series with Aβ42 were 86% and 41%, respectively. Also, the IC50 in the series with Aβtotal [2] (setting [3]) is above 10 µM.

As for `Cc1cc(F)ccc1C1OCCn2cc(-c3cc4cc(-c5cnn(C)c5)ccc4[nH]3)nc21` (stereo not drawn) [Compound 99, 8-(4-fluoro-2-methylphenyl)-5,6-dihydro-2-[5-(1-methyl-1H-pyrazol-4-yl)-1H-indol-2-yl]-8H-imidazo[2,1-c][1,4]oxazine], the response vs control in vivo at 30 mg/kg was found to be 115% with Aβtotal [1] and 63% in the series on Aβ42. The half-maximal inhibitory concentration (IC50) with Aβtotal [2] (setting [3]) was above 10 µM.

`Cc1cc(F)ccc1C1CCCn2nc(-c3[nH]c4ccc(C#N)cc4c3F)nc21` (single isomer, unassigned) [Compound 182, 3-fluoro-2-[8-(4-fluoro-2-methylphenyl)-5,6,7,8-tetrahydro[1,2,4]triazolo[1,5-a]pyridin-2-yl]-1H-indole-5-carbonitrile]: the response vs control in vivo at 30 mg/kg in the series with Aβtotal [1] stood at 118%; in the series on Aβ42 it was 122%. In the series with Aβtotal [2] (setting [4]), this compound had an IC50 above 10 µM.

Take `Cc1cc(F)ccc1C1OCCn2cc(-c3cc4nc(-c5cnn(C)c5)ccc4[nH]3)nc21` (single isomer, unassigned) [Compound 102, 8-(4-fluoro-2-methylphenyl)-5,6-dihydro-2-[5-(1-methyl-1H-pyrazol-4-yl)-1H-pyrrolo[3,2-b]pyridin-2-yl]-8H-imidazo[2,1-c][1,4]oxazine]: the response vs control in vivo at 30 mg/kg is 121% in the series with Aβtotal [1] and 98% in the series with Aβ42. The compound also returned a concentration for half-maximal inhibition (IC50) in the series on Aβtotal [2] (setting [4]) above 10 µM.

Take `Cc1cn(-c2cc3cc(-c4nc5n(n4)CCCC5c4ccc(F)cc4C)[nH]c3cn2)cn1` (stereo not drawn) [Compound 71, 8-(4-fluoro-2-methylphenyl)-5,6,7,8-tetrahydro-2-[5-(4-methyl-1H-imidazol-1-yl)-1H-pyrrolo[2,3-c]pyridin-2-yl]-[1,2,4]triazolo[1,5-a]pyridine]: the response vs control in vivo at 30 mg/kg with Aβtotal [1] was determined as 115%; in the series on Aβ42, 108%. Besides, in the series with Aβtotal [2] (setting [3]), the IC50 is above 10 µM.

For `COc1c(C#N)ccc2[nH]c(-c3nc4n(n3)CCCC4c3ccc(F)cc3C)cc12` (stereo not drawn) [Compound 59, 2-[8-(4-fluoro-2-methylphenyl)-5,6,7,8-tetrahydro[1,2,4]triazolo[1,5-a]pyridin-2-yl]-4-methoxy-1H-indole-5-carbonitrile], the response vs control in vivo at 30 mg/kg in the series on Aβtotal [1] is 86%; in the series on Aβ42, 55%. For the same compound, the midpoint of inhibition with Aβtotal [2] (setting [3]), the IC50, lay at 3.71 µM.

Turning to `Cc1cc(F)ccc1C1CCCn2nc(-c3cc4cc(C#N)ccc4[nH]3)nc21` (stereo not drawn) [Compound 10, 2-[8-(4-fluoro-2-methylphenyl)-5,6,7,8-tetrahydro[1,2,4]triazolo[1,5-a]pyridin-2-yl]-1H-indole-5-carbonitrile], the response vs control in vivo at 30 mg/kg stood at 105% in the series with Aβtotal [1] and 72% in the series on Aβ42. The compound also yielded an IC50 in the series on Aβtotal [2] (setting [4]) above 10 µM.

Regarding `Cc1cc(F)ccc1C1CCCn2cc(-c3cc4cc(C#N)ccc4[nH]3)nc21` (stereo not drawn) [Compound 64, 2-[8-(4-fluoro-2-methylphenyl)-5,6,7,8-tetrahydroimidazo[1,2-a]pyridin-2-yl]-1H-indole-5-carbonitrile], the “Aβtotal (% vs Ctrl)_Mean” value in the series on Aβtotal [1] (30 mg/kg) is listed as 100 % vs Ctrl. Moreover, in the series with Aβ42 (30 mg/kg), the “Aβ42 (% vs Ctrl)_Mean” value was found to be 48 % vs Ctrl. In addition, the IC50 in the series on Aβtotal [2] (setting [4]) was above 10 µM.

Turning to `Cc1cn(-c2ccc3[nH]c(-c4nc5n(n4)CCCC5c4ccc(F)cc4C)cc3c2)cn1` (single isomer, unassigned) [Compound 77, 8-(4-fluoro-2-methylphenyl)-5,6,7,8-tetrahydro-2-[5-(4-methyl-1H-imidazol-1-yl)-1H-indol-2-yl]-[1,2,4]triazolo[1,5-a]pyridine], the response vs control in vivo at 30 mg/kg with Aβtotal [1] was determined as 102%; with Aβ42, 104%. Further, the IC50 in the series on Aβtotal [2] (setting [4]) was above 10 µM.

The melting point is the temperature of the solid-liquid transition. Regarding `COc1c(C#N)ccc2[nH]c(-c3nc4n(n3)CCOC4c3ccc(F)cc3C)cc12` (stereo not drawn) [Compound 114, 2-[8-(4-fluoro-2-methylphenyl)-5,6-dihydro-8H-[1,2,4]triazolo[5,1-c][1,4]oxazin-2-yl]-4-methoxy-1H-indole-5-carbonitrile], the melting point stood at 257.5 °C. In addition, the “Aβ42 (% vs Ctrl)_Mean” value with Aβ42 (30 mg/kg) amounted to 95 % vs Ctrl. Further, in the series with Aβtotal [2] (setting [4]), the IC50 was above 10 µM.

(Values after patent US9115143B2, “Substituted indole derivatives as gamma secretase modulators” (Janssen Pharmaceuticals, Inc., priority 2011, dated 2015).)
